Experimental data from patent US20250098651A1, “A NON-HUMAN MAMMAL COMPRISING IN ITS GENOME AT LEAST TWO HUMAN LEUKOCYTE ANTIGEN (HLA) CLASS I ALLELES, METHODS OF MAKING SUCH MAMMAL AND USES THEREOF” (Max-Delbrueck-Centrum für Molekulare Medizin in der …, priority 2022, published 2025).

T1: TRRAP S722F peptide on HLA-A*02:01 (human)
T1 peptide: KLVFGSVFL

T2: TRRAP (wild-type S722) peptide on HLA-A*02:01 (human)
T2 peptide: KLVFGSVSL


Assays:
CD8^+ T cells [1] = assay: Peptide immunization of ABab.I mice, intracellular IFN-γ staining of CD8+ T cells; format: in vivo, mouse; details: for CD8^+ T cells produced IFN-γ: ABab.I mice, peripheral blood restimulated in vitro seven days post-injection; for mice responded: out of 6-7 mice/antigen
Description: A 200 μl injection suspension containing 100 μg of short peptides in PBS, 100 μl of incomplete Freund's adjuvant, and 50 μg CpG oligonucleotides were injected subcutaneously on both lateral sides of hind legs. 10- to 20-week-old young ABabDII or ABab.I mice (6-7 mice/group) were immunized with a 4-week interval between prime-boosts. […] As standard controls, ABabDII^1 and ABab.I mice were immunized with 100 μg of MAGE-A1278 […] […] 7-10 days after every boost injection, peripheral blood cells from immunized mice were ACK-lysed and cultured with 1 μM respective specific or unspecific peptide in the presence of protein transport inhibitor for 5-6 hours. Post-cell fixation, cells were intracellularly stained for IFN-γ, surface stained for CD3, CD8 markers, and analyzed by flow cytometry.
We analyzed ABab.I mice for antigen-specific CD8^+ T cell responses against described model antigens (FIG. 19A) using peptide immunization (FIG. 20). […] The MAGE-A1 epitope, […] The unspecific peptide used in in vitro restimulations was a NY-ESO epitope, […] (SEQ ID NO: 180).
Procedure: young mice were peptide-immunized (minimum twice) with intervals of at least 4-weeks between injections. Seven days post-booster injections, PBMCs from multi-HLA mice were stimulated in vitro with either the same peptides used for immunization (right), or unspecific peptides (left), or CD3/CD28 beads (middle, positive control). Intracellular flow cytometry staining measured the amount of IFN-γ cytokine released by the CD8^+ T cells after reacting to their respective epitopes. By flow cytometry, CD8^+ T cells were in vitro measured for CD3, CD8, and intracellularly IFN-γ expression. Dot plots in the figure depict CD8^+ IFN-γ^+ T cells (gated on CD3^+ lymphocytes). As an unspecific peptide, NY-ESO peptide ([…]) was used (as a negative control) only for in vitro stimulations.

A375 cells = assay: Endogenous processing assay, co-culture with A375 cells, IFN-γ; format: cell-based, Homo sapiens; details: concluded from TCR co-culture with TRRAP+ cell lines
From the text: FIGS. 4A-4F show the generation and characterization of TRRAP S722F TCRs in ABabDII mice. FIG. 4A depicts the TCR discovery pipeline with the immunization schedule as used in an illustrative example. […] Controls with wild-type S722 peptide or without (w/o) peptide. One representative flow cytometry plot out of three responder mice is given. […] IFN-γ levels measured after overnight co-culture of PBMCs (1×10^5) either with A375 cells (mutant-S722F^+, NY-ESO^+) or with SK-Mel-37 (wild-type-S722^+, NY-ESO^+). The TCR-ESO recognizes the NY-ESO157-165 epitope. Bar graph represents mean±SD (n=2). One representation out of three co-culture experiments is given.
Transduced T cells were co-cultured with peptide-titrated T2 (TAP^−/−) cells to ensure TCR interaction and its affinity to S722F. […] NY-ESO157-165, the HLA-A2 epitope is expressed on melanoma cells A375 and SK-Mel-37.

CD8^+ T cells [2] = assay: Peptide immunization of ABabDII mice, CD8+ T cell IFN-γ response; format: in vivo, mouse
Description: A 200 μl injection suspension containing 100 μg of short peptides in PBS, 100 μl of incomplete Freund's adjuvant, and 50 μg CpG oligonucleotides were injected subcutaneously on both lateral sides of hind legs. 10- to 20-week-old young ABabDII or ABab.I mice (6-7 mice/group) were immunized with a 4-week interval between prime-boosts. Similar peptide mixtures were prepared and injected for further boosting regimens of all peptides. As standard controls, ABabDII^1 and ABab.I mice were immunized with 100 μg of MAGE-A1278 […] (SEQ ID NO: 26) peptide with a similar injection mixture. 7-10 days after every boost injection, peripheral blood cells from immunized mice were ACK-lysed and cultured with 1 μM respective specific or unspecific peptide in the presence of protein transport inhibitor for 5-6 hours. Post-cell fixation, cells were intracellularly stained for IFN-γ, surface stained for CD3, CD8 markers, and analyzed by flow cytometry.
For TCR candidate discovery, young ABabDII mice (n=7, 12-16 weeks) were immunized with mutant 9-mer peptides (FIG. 3B, […], SEQ ID NO: 30) at 4-week intervals. CD8^+ T cell responses were analyzed in blood one week after every boost using intracellular staining, followed by culturing the T cells and IFN-γ capture assay to sort for peptide-specific T cells (FIG. 4A). […]

[3] = biological target: T1, TRRAP S722F peptide on HLA-A*02:01; assay: cytokine release
[4] = biological target: T2, TRRAP (wild-type S722) peptide on …; assay: cytokine release

Molecule | CD8^+ T cells produced IFN-γ (CD8^+ T cells [1]) | mice responded (CD8^+ T cells [1]) | also measured
QYDPVAALF | about 0.3% | – | –
TPRVTGGGAM | About 1.4% | – | –
KVLEYVIKV | ~1% | 3 | –
KMRMRRMRR | about 1.8% | 1 | –
KLVFGSVEL [mutant epitope-S722F, TRRAP S722F mutant nonamer, HLA-A2-restricted] | – | – | endogenous processing and presentation on HLA-A2 (A375 cells): not endogenously processed and presented on HLA-A2; T cells responding in the spleen after T cell culturing (CD8^+ T cells [2]; 10^−9 M peptide and IL-2 (20 IU/ml) for 10 days): about 17%; T cells responded in blood (CD8^+ T cells [2]; ABabDII mice, one-week post-4th injection (3rd boost)): about 0.8%
APRGPHGGAASGL (NY- ESO peptide; NY- ESO epitope) [unspecific NY-ESO peptide used for in vitro restimulation] | No T cell responses were observed | – | –
VVGAVGVGK | About 6.9% | 6 | –
SAFRCFIVY | about 0.2% | 3 | –
VRIGHLYIL | about 0.23% | 1 | –
TRRAP S722F TCR, dominant TCR Valpha17-Vbeta27 pair (TCR) alpha TRAV17-1 TRAJ58 CDR3: CATDAEETSGSRLTF beta TRBV27-1 TRBJ2-1 CDR3: CASSLAGIYNEQFF | – | – | binding result [3]: recognises; binding result [4]: no recognition
